Reference: publication PMC11181478, “SARS-CoV-2 Main Protease Inhibitors That Leverage Unique Interactions with the Solvent Exposed S3 Site of the Enzyme” (ACS Medicinal Chemistry Letters, 2024)
Where two headings read alike, the source gives them in different places.

Columns and labels:
SARS-CoV-2 M^Pro [1] = biological target: T1, SARS-CoV-2 M^Pro (Severe acute respiratory syndrome coronavirus 2, UniProt P0DTD1); experiment: In vitro M^Pro inhibition potency (enzymatic IC50, fluorogenic substrate Sub3); type: biochemical; conditions: 20 nM M^Pro, 10 μM Sub3, 30 min preincubation, pH 7.6
[2] = biological target: M^Pro-eGFP fusion protein transiently expressed in 293T cells (Severe acute respiratory syndrome coronavirus 2, UniProt P0DTD1); type: cell-based, SARS-CoV-2; conditions: read-out: Cellular EC50
SARS-CoV-2 M^Pro [3] = biological target: T1, SARS-CoV-2 M^Pro; conditions: read-out: IC50 against M^Pro; previously published inhibitors; cited from earlier work

| SMILES | IC50 (SARS-CoV-2 M^Pro [1]) [nM] | EC50 [2] [nM] | IC50 (SARS-CoV-2 M^Pro [3]) [nM] |
| --- | --- | --- | --- |
| CC(C)(C)C[C@H](NC(=O)N1CC[C@@H]1c1ccccc1)C(=O)N[C@H](C=O)C[C@@H]1CCNC1=O [MPI105] | 39 | > 5000 |  |
| CC1(C)[C@@H]2[C@@H](C(=O)N[C@H](C=O)C[C@@H]3CCNC3=O)N(C(=O)[C@H](Cc3ccccc3)NC(=O)OCc3ccccc3)C[C@@H]21 [MPI99] | 270 | > 5000 |  |
| CC1(C)[C@@H]2[C@@H](C(=O)N[C@H](C=O)C[C@@H]3CCNC3=O)N(C(=O)N(c3ccc(Cl)cc3)c3ccc(Cl)cc3)C[C@@H]21 [MPI97] |  | 1100 |  |
| CC1(C)[C@@H]2[C@@H](C(=O)N[C@H](C=O)C[C@@H]3CCNC3=O)N(C(=O)OC(c3ccccc3)c3ccccc3)C[C@@H]21 [MPI94] |  | 900 |  |
| CC1(C)[C@@H]2[C@@H](C(=O)N[C@H](C=O)C[C@@H]3CCNC3=O)N(C(=O)OCc3cccnc3)C[C@@H]21 [MPI102] | 28 | > 5000 |  |
| CC(C)(C)C[C@H](NC(=O)OCc1ccccc1)C(=O)N[C@H](C=O)C[C@@H]1CCNC1=O [MPI50] |  |  | 53 |
| CC1(C)[C@@H]2[C@@H](C(=O)N[C@H](C=O)C[C@@H]3CCNC3=O)N(C(=O)C(c3ccc(Cl)cc3)c3ccc(Cl)cc3)C[C@@H]21 [MPI96] |  | 2900 |  |
| CC1(C)[C@@H]2[C@@H](C(=O)N[C@H](C#N)C[C@@H]3CCNC3=O)N(C(=O)OCc3cccnc3)C[C@@H]21 [MPI103] | 28 | > 5000 |  |
| CC1(C)[C@@H]2[C@@H](C(=O)N[C@H](C=O)C[C@@H]3CCNC3=O)N(C(=O)C(Oc3ccc(Cl)cc3)Oc3ccc(Cl)cc3)C[C@@H]21 [MPI98] |  | 490 |  |
| CC1(C)[C@@H]2[C@@H](C(=O)N[C@H](C#N)C[C@@H]3CCNC3=O)N(C(=O)[C@@H](NC(=O)C(F)(F)F)c3ccc(Cl)c(Cl)c3)C[C@@H]21 [MPI108] |  | > 5000 |  |
| CC1(C)[C@@H]2[C@@H](C(=O)N[C@H](C=O)C[C@@H]3CCNC3=O)N(C(=O)OC(c3ccc(F)cc3)c3ccc(F)cc3)C[C@@H]21 [MPI95] |  | 910 |  |
| CC(C)(C)C[C@H](NC(=O)[C@@H]1CC[C@@H]1c1ccccc1)C(=O)N[C@H](C=O)C[C@@H]1CCNC1=O [MPI104] | 79 | > 5000 |  |
| CC(C)(C)C[C@H](NC(=O)OCc1cccnc1)C(=O)N[C@H](C=O)C[C@@H]1CCNC1=O [MPI101] | 20 | > 5000 |  |
| CC1(C)[C@@H]2[C@@H](C(=O)N[C@H](C=O)C[C@@H]3CCNC3=O)N(C(=O)[C@H](CC3CCCCC3)NC(=O)OCc3ccccc3)C[C@@H]21 [MPI100] |  | 140 |  |
| CC1(C)[C@@H]2[C@@H](C(=O)N[C@H](C#N)C[C@@H]3CCNC3=O)N(C(=O)[C@@H](NC(=O)C(F)(F)F)c3ccc(Cl)cc3)C[C@@H]21 [MPI106] |  | > 5000 |  |
